According to ChEMBL document CHEMBL4041499, “Synthesis and evaluation of 7-substituted coumarin derivatives as multimodal monoamine oxidase-B and cholinesterase inhibitors for the treatment of Alzheimer's disease” (Eur J Med Chem, 2017):

Tests used:
Cholinesterase = Cholinesterase (Equus caballus, UniProt P81908)
Acetylcholinesterase = Acetylcholinesterase (Electrophorus electricus, UniProt O42275)
[1] = biological target: T1, Amine oxidase [flavin-containing] A (Homo sapiens, UniProt P21397); assay type: ADME
T1 sequence (P21397 whole entry): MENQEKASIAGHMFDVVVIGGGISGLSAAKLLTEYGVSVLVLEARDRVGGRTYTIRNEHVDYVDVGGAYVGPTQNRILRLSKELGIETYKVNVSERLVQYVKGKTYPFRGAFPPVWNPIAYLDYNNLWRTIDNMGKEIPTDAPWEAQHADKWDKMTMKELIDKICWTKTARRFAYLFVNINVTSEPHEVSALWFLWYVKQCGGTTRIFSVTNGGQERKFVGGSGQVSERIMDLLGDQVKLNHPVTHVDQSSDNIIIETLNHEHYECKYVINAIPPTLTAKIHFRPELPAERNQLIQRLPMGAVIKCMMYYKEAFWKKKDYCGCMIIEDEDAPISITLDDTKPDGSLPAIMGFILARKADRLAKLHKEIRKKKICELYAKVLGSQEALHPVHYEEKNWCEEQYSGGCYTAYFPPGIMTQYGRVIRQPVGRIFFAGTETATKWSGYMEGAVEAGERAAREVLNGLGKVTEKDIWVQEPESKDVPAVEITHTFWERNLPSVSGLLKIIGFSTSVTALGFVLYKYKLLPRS
Description: Inhibition of recombinant human MAO-A assessed as reduction in 4-hydroxyquinolone production using kynuramine as substrate after 20 mins by fluorescence assay

Sequence of Cholinesterase (P81908 whole entry): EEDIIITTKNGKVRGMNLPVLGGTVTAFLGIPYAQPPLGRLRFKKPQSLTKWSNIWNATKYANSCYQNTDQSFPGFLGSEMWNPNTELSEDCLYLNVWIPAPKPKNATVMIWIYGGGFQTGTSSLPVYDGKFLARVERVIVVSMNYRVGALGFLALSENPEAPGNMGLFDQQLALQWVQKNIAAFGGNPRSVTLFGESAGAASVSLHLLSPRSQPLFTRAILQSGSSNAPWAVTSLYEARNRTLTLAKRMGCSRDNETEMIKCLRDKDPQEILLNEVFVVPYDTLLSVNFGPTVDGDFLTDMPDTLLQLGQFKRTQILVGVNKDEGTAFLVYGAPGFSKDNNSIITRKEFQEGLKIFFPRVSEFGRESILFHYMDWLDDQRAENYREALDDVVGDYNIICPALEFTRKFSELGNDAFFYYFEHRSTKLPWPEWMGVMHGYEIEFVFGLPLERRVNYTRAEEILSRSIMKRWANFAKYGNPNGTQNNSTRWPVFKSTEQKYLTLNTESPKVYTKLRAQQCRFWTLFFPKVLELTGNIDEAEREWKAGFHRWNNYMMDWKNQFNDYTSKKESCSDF
Sequence of Acetylcholinesterase (O42275 whole entry): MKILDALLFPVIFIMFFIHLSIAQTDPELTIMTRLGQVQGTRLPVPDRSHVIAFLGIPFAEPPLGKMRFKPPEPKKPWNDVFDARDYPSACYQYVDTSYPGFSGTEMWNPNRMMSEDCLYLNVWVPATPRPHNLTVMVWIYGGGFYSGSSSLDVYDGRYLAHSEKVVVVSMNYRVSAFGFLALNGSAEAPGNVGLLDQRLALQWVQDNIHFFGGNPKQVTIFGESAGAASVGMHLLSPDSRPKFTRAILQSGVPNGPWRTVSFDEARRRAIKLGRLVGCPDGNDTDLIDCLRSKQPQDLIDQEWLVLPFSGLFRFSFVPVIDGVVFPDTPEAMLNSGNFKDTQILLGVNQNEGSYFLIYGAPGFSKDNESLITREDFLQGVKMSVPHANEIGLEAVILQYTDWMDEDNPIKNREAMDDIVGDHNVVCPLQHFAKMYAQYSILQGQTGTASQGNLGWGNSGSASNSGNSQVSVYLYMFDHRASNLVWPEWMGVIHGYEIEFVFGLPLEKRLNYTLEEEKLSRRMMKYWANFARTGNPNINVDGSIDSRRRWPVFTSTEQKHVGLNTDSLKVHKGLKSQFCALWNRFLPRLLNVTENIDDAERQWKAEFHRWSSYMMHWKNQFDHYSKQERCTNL

SMILES | IC50 (Cholinesterase) [µM] | IC50 (Acetylcholinesterase) [µM] | IC50 [1] [µM]
Cc1c(Cl)c(=O)oc2cc(OCc3ccccc3)ccc12 | 0.96 | > 100 | 2.13
Cc1cc(=O)oc2cc(OCCN3CCCCC3)ccc12 | – | 66.4 | –
Cc1c(Cl)c(=O)oc2cc(OCc3ccc(Br)cc3)ccc12 | > 100 | > 100 | –
Cc1cc(=O)oc2cc(OCCN3CCN(Cc4ccc(Br)cc4)CC3)ccc12 | 9.7 | 12.8 | > 10
Cc1c(C#N)c(=O)oc2cc(OCc3ccc(Cl)cc3)ccc12 | > 100 | > 100 | –
Cc1cc(=O)oc2cc(OCc3ccc(Br)cc3)ccc12 | > 100 | > 100 | 0.05
Cc1c(C#N)c(=O)oc2cc(OCc3ccccc3Br)ccc12 | > 100 | > 100 | > 10
O=c1ccc2ccc(OCCN3CCC(Cc4ccccc4)CC3)cc2o1 | 20.3 | 36.7 | > 10
Cc1c(C#N)c(=O)oc2cc(OCc3ccc(F)cc3)ccc12 | > 100 | > 100 | –
Cc1c(C#N)c(=O)oc2cc(OCc3ccccc3)ccc12 | 21.8 | > 100 | 1.38
O=c1ccc2ccc(OCCN3CCCCC3)cc2o1 | – | 54.9 | –
O=c1ccc2ccc(OCc3ccc(Br)cc3)cc2o1 | > 100 | > 100 | –
Cc1c(C#N)c(=O)oc2cc(OCc3ccc(Br)cc3Br)ccc12 | > 100 | > 100 | 0.72
O=c1cc(C(F)(F)F)c2ccc(OCCN3CCN(Cc4ccc(Br)cc4)CC3)cc2o1 | > 100 | > 100 | > 10
Cc1cc(=O)oc2cc(OCCN3CCC(Cc4ccccc4)CC3)ccc12 | 5.19 | 29.4 | > 10
Cc1c(C#N)c(=O)oc2cc(OCCN3CCC(Cc4ccccc4)CC3)ccc12 | 5.9 | 9.1 | > 10
Cc1c(C#N)c(=O)oc2cc(OCc3ccc(Br)cc3)ccc12 | > 100 | > 100 | –
Cc1c(C#N)c(=O)oc2cc(OCCN3CCN(Cc4ccc(Br)cc4)CC3)ccc12 | 13.3 | 38.5 | > 10
O=c1ccc2ccc(OCCN3CCN(Cc4ccc(Br)cc4)CC3)cc2o1 | 50.1 | > 100 | > 10
Cc1c(Cl)c(=O)oc2cc(OCCN3CCC(Cc4ccccc4)CC3)ccc12 | 1.27 | 31.3 | > 10
O=c1cc(C(F)(F)F)c2ccc(OCCN3CCC(Cc4ccccc4)CC3)cc2o1 | > 100 | > 100 | > 10
Cc1c(Cl)c(=O)oc2cc(OCCN3CCN(Cc4ccc(Br)cc4)CC3)ccc12 | 3.12 | > 100 | > 10
O=c1cc(C(F)(F)F)c2ccc(OCc3ccc(Br)cc3)cc2o1 | > 100 | > 100 | > 10
